pIC50: −log10 of the molar value.
Assays:
BACE1 [1] = target: T1, BACE1 (Homo sapiens, UniProt P56817); experiment: In Vitro BACE Cell-based Assay (HEK cell assay): Aβ40 in conditioned medium of cells stably expressing Amyloid Precursor Protein, sandwich ELISA; conditions: read-out: HEK cell assay; for IC50: Table III, IC50's in uM ranges
Summary of the method: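 First, APP-stable cells grow 24 h at 37° C., 5% CO2. Next, test compounds are added for 24 h (10 doses, 0.1% DMSO). Finally, medium Aβ40 is determined by pAb40/6E10 sandwich ELISA with Europium TRF, and IC50 is calculated.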

BACE1 [2] = target: T1, BACE1; experiment: In Vitro Enzymatic BACE FRET (Fluorescence Resonance Energy Transfer) Assay; format: biochemical; conditions: read-out: BACE1 FRET assay; for IC50: Table III, IC50's in uM ranges
Summary of the method: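 Run in 0.05 M acetate pH 4.2 with 10% DMSO final and 100 uM genapol detergent below its CMC. Reaction was started with 50 nM FRET peptide substrate (fluorophore and quencher flanking the BACE cleavage site), incubated one hour, stopped with Tris to neutral pH, and fluorescence read.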

[3] = HEK cell-based assay, Aβ40 in conditioned medium, IC50 class symbols
[4] = in vitro BACE FRET enzyme assay, IC50 class symbols
[5] = Table II, Aβ40, 24 h incubation

T1 sequence (P56817 46-501, species assumed): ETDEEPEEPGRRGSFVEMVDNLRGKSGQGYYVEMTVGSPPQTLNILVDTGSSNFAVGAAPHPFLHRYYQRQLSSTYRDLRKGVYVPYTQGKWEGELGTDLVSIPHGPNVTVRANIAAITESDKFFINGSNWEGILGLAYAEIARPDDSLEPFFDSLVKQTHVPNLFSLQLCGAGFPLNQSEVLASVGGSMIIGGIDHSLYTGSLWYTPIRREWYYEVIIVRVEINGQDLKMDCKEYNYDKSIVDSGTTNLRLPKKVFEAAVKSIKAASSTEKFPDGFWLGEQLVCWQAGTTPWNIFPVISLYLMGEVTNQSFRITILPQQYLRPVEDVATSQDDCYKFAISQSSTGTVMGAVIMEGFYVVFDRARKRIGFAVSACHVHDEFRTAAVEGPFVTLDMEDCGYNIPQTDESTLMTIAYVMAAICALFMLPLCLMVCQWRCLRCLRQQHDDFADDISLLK

Compound	pIC50 (BACE1 [2])	pIC50 (BACE1 [1]; Table IV, class symbols)	pIC50 (BACE1 [2]; Table IV, class symbols)	further results
CN1CCN(c2cc3c(cn2)Oc2ccc(-c4cccnc4)cc2[C@@]32COC(N)=N2)CC1 [compound 444]	> 7.00			pIC50 (BACE1 [1]; HEK cells): > 7.00
Cc1ccc(-n2ccc3c(c2=O)[C@]2(COC(N)=N2)c2cc(-c4cccnc4)ccc2O3)cc1 [compound 504]	6.00 to 7.00			pIC50 (BACE1 [1]; HEK cells): 6.00 to 7.00
COC(=O)/C=C/c1ccc2c(c1)[C@]1(COC(N)=N1)c1cc(-c3cccnc3)ccc1O2 [compound 947]	6.00 to 7.00			pIC50 (BACE1 [1]): 6.00 to 7.00
NC1=N[C@]2(CO1)c1cc(-c3cccc(OC(F)(F)F)c3)ccc1Oc1ncccc12 [compound 595]		5.30 to 6.00	6.00 to 7.00	
NC1=N[C@]2(CO1)c1ccccc1Oc1ccc(-c3c(F)ccnc3F)cc12 [compound 599]		5.30 to 6.00	6.00 to 7.00	
NC1=N[C@@]2(CO1)c1cc(-c3cncc(F)c3)ccc1Oc1cnc(C3=CCOCC3)cc12 [compound 368, (5S)-3-(3,6-dihydro-2H-pyran-4-yl)-7-(5-fluoro-3-pyridinyl)spiro[chromeno[2,3-c]pyridine-5,4′-[1,3]oxazol]-2′-amine]				pIC50 (BACE1 [1]; [3]): > 7.00; pIC50 (BACE1 [2]; [4]): > 7.00
Cc1ccc2c(c1)Oc1ccc(-c3cccc(Cl)c3F)cc1C21COC(N)=N1 (stereo not drawn) [Example 26, 2′-(3-chloro-2-fluorophenyl)-6′-methylspiro[1,3-oxazole-4,9′-xanthen]-2-amine]				pIC50 (BACE1 [1]; Table 1, Aβ40, 24 h incubation): 5.30 to 6.00; pIC50 (BACE1 [2]; Table 1): < 5.30
COc1ccc2c(c1)[C@@]1(COC(N)=N1)c1cc(-c3cncnc3)cc(F)c1O2 [152b]				IC50 (BACE1 [1]): 1 to 5 µM; IC50 (BACE1 [2]): 1 to 5 µM
NC1=N[C@@]2(CO1)c1ccccc1Oc1ccc(-c3cccnc3F)cc12 [compound 641]		5.30 to 6.00	6.00 to 7.00	
Cc1cncc(-c2ccc3c(c2)[C@@]2(COC(N)=N2)c2cc(OCC(C)(C)O)ccc2O3)c1 [compound 223]				IC50 (BACE1 [1]): < 0.1 µM; IC50 (BACE1 [2]): < 0.1 µM
CC(C)(C)COc1ccc2c(c1)[C@@]1(COC(N)=N1)c1cc(-c3cnc4ccccn34)ccc1O2 [compound 192]				IC50 (BACE1 [1]): > 5 µM; IC50 (BACE1 [2]): 1 to 5 µM
CC1(C)C=C(c2cnc3c(c2)[C@]2(COC(N)=N2)c2cc(-c4cccnc4)ccc2O3)CCO1 [compound 481]	> 7.00			pIC50 (BACE1 [1]; HEK cells): > 7.00
CC1(C#Cc2cnc3c(c2)[C@]2(COC(N)=N2)c2cc(-c4cc(F)ccc4F)ccc2O3)COC1 [compound 519]	> 7.00			pIC50 (BACE1 [1]; HEK cells): > 7.00
COCC[C@@H]1CN(c2ccc3c(c2)[C@]2(COC(N)=N2)c2cc(-c4cccnc4)ccc2O3)CCO1 [compound 362]				pIC50 (BACE1 [1]; [3]): 6.00 to 7.00; pIC50 (BACE1 [2]; [4]): 6.00 to 7.00
Cc1ccc2c(c1)Oc1ccc(-c3ccccc3Cl)cc1C21COC(N)=N1 (stereo not drawn) [Example 29, 2′-(2-chlorophenyl)-6′-methylspiro[1,3-oxazole-4,9′-xanthen]-2-amine]				pIC50 (BACE1 [1]; Table 1, Aβ40, 24 h incubation): < 5.30; pIC50 (BACE1 [2]; Table 1): < 5.30
CCCOc1cc2c(cc1F)Oc1ccc(-c3ccc(F)nc3)cc1[C@@]21COC(N)=N1 [compound 920]		6.00 to 7.00	> 7.00	
CC(C)CCCOc1nccc2c1[C@@]1(COC(N)=N1)c1cc(-c3cccnc3)ccc1O2 [compound 843]		< 5.30	< 5.30	
CC(C)(C)C#Cc1ccc2c(c1)[C@@]1(COC(N)=N1)c1cc(-c3cccnc3)cnc1O2 [compound 160]				IC50 (BACE1 [1]): < 0.1 µM; IC50 (BACE1 [2]): < 0.1 µM
C=C(C)COc1ccc2c(c1)[C@]1(COC(N)=N1)c1cc(-c3cccnc3)ccc1O2 [compound 146]				IC50 (BACE1 [1]): 0.1 to 1 µM; IC50 (BACE1 [2]): < 0.1 µM
NC1=N[C@@]2(CO1)c1cc(-c3ccccc3)ccc1Oc1ncc(C3=CCOCC3)cc12 [compound 580]		> 7.00	> 7.00	
NC1=N[C@@]2(CO1)c1cc(-c3cccnc3F)ccc1Oc1ncccc12 [compound 570]		6.00 to 7.00	> 7.00	
NC1=N[C@@]2(CO1)c1cc(-c3cncnc3)ccc1Oc1ccc(C(F)(F)F)cc12 [compound 597]		6.00 to 7.00	6.00 to 7.00	

Compound	pIC50 (BACE1 [2])	pIC50 (BACE1 [1]; Table IV, class symbols)	pIC50 (BACE1 [2]; Table IV, class symbols)	further results
NC1=N[C@@]2(CO1)c1cc(-c3cncnc3)ccc1Oc1ccc(N3CC(F)(F)C3)cc12 [compound 508]	> 7.00			pIC50 (BACE1 [1]; HEK cells): > 7.00
NC1=N[C@@]2(CO1)c1cc(-c3cncnc3)ccc1Oc1c(F)cccc12 [compound 553]		6.00 to 7.00	> 7.00	
CC1(COc2cnc3c(c2)[C@]2(COC(N)=N2)c2cc(-c4ccccc4Cl)ccc2O3)COC1 [compound 414]				pIC50 (BACE1 [1]; [3]): 6.00 to 7.00; pIC50 (BACE1 [2]; [4]): > 7.00
NC1=N[C@@]2(CO1)c1cc(-c3cccnc3)ccc1Oc1ccc(-c3csc(C4CC4)n3)cc12 [compound 632]		6.00 to 7.00	> 7.00	
CC1(C)CN(c2cc(F)c3c(c2)[C@]2(COC(N)=N2)c2cc(-c4cncnc4)ccc2O3)CCO1 [compound 505]	> 7.00			pIC50 (BACE1 [1]; HEK cells): > 7.00
Cn1cncc1-c1ccc2c(c1)[C@]1(COC(N)=N1)c1cc(OCC(C)(C)C)ccc1O2 [compound 187]				IC50 (BACE1 [1]): 1 to 5 µM; IC50 (BACE1 [2]): 1 to 5 µM
CC1(COc2ccc3c(c2)[C@@]2(COC(N)=N2)c2cc(-c4cccc(Cl)c4)cnc2O3)COC1 [compound 772]	> 7.00			pIC50 (BACE1 [1]): 6.00 to 7.00
COc1cc2c(cc1F)Oc1ccc(-c3cncnc3)cc1[C@@]21COC(N)=N1 [154b]				IC50 (BACE1 [1]): 0.1 to 1 µM; IC50 (BACE1 [2]): < 0.1 µM
CC(C)(C)CCc1ccc2c(c1)[C@]1(COC(N)=N1)c1cc(-c3cccnc3)cnc1O2 [182b]				IC50 (BACE1 [1]): 0.1 to 1 µM; IC50 (BACE1 [2]): < 0.1 µM
C[C@@H]1CN(c2cc(F)c3c(c2)[C@]2(COC(N)=N2)c2cc(-c4cncnc4)ccc2O3)C[C@H](C)O1 [compound 501]	> 7.00			pIC50 (BACE1 [1]; HEK cells): > 7.00
CC(C)(C)COc1ccc2c(c1)[C@]1(COC(N)=N1)c1cc(C#CC3CC3)ccc1O2 [Example 40, (4S)-2′-(cyclopropylethynyl)-7′-(2,2-dimethylpropoxy)spiro[1,3-oxazole-4,9′-xanthen]-2-amine]				pIC50 (BACE1 [1]; [5]): 6.00 to 7.00; pIC50 (BACE1 [2]; Table II): > 7.00
CC(C)(C)CC(=O)c1ccc2c(c1)[C@@]1(CSC(N)=N1)c1cc(-c3cncnc3)ccc1O2 [compound 762]	6.00 to 7.00			pIC50 (BACE1 [1]): 5.30 to 6.00
Cn1cc(-c2cc3c(cn2)Oc2ccc(-c4cccc(Cl)c4)cc2[C@@]32COC(N)=N2)cn1 [compound 329]				pIC50 (BACE1 [1]; [3]): > 7.00; pIC50 (BACE1 [2]; [4]): > 7.00
CC(=O)/C=C/c1ccc2c(c1)[C@]1(COC(N)=N1)c1cc(-c3cncnc3)ccc1O2 [compound 857]		6.00 to 7.00	> 7.00	
NC1=N[C@]2(CO1)c1cc(-c3cncnc3)ccc1Oc1c(F)cc(C3=CCOCC3)cc12 [compound 637]		6.00 to 7.00	5.30 to 6.00	
COc1cc(F)c2c(c1)[C@@]1(COC(N)=N1)c1cc(-c3cncnc3)cnc1O2 [compound 585]		< 5.30	< 5.30	
CC(C)(C#N)COc1ccc2c(c1)[C@]1(COC(N)=N1)c1cc(-c3cccnc3)cnc1O2 [compound 168]				IC50 (BACE1 [1]): < 0.1 µM; IC50 (BACE1 [2]): < 0.1 µM
CC(C)(C)COc1ccc2c(c1)C1(COC(N)=N1)c1cc(Br)ccc1O2 (stereo not drawn) [Example 57, 2′-bromo-7′-(2,2-dimethylpropoxy)spiro[1,3-oxazole-4,9′-xanthen]-2-amine]				pIC50 (BACE1 [1]; [5]): 5.30 to 6.00; pIC50 (BACE1 [2]; Table II): 6.00 to 7.00
CCOC(C)(C)C#Cc1cnc2c(c1)[C@]1(COC(N)=N1)c1cc(-c3cccnc3)ccc1O2 [compound 347]				pIC50 (BACE1 [1]; [3]): > 7.00; pIC50 (BACE1 [2]; [4]): > 7.00
CC(C)(C)CCOc1nccc2c1[C@]1(COC(N)=N1)c1cc(-c3cncnc3)ccc1O2 [compound 984]	6.00 to 7.00			pIC50 (BACE1 [1]): 6.00 to 7.00
NC1=N[C@]2(CO1)c1cc(C3=CCOCC3)ccc1Oc1cnc(-c3ccccc3F)cc12 [compound 498]	> 7.00			pIC50 (BACE1 [1]; HEK cells): 6.00 to 7.00
NC1=N[C@@]2(CO1)c1cc(-c3cccnc3)ccc1Oc1cnc([C@@H]3CCCCO3)cc12 [compound 696]	> 7.00			pIC50 (BACE1 [1]): > 7.00

Now from value to molecule, other results behind:

pIC50 (BACE1 [2])	pIC50 (BACE1 [1]; Table IV, class symbols)	pIC50 (BACE1 [2]; Table IV, class symbols)	Compound	further results
> 7.00			CC(C)NC(=O)c1ccc2c(c1)[C@@]1(COC(N)=N1)c1cc(OCC(C)(C)C)ccc1O2 [compound 703]	pIC50 (BACE1 [1]): > 7.00
	> 7.00	> 7.00	COC(C)(C)C#Cc1ccc2c(c1)[C@@]1(COC(N)=N1)c1cc(-c3ccc(C)cc3)cnc1O2 [compound 577]	
6.00 to 7.00			COc1ccc2c(c1)[C@@]1(COC(N)=N1)c1cc(-c3cccnc3)cnc1O2 [compound 670]	pIC50 (BACE1 [1]): 5.30 to 6.00
	5.30 to 6.00	6.00 to 7.00	CC(C)(C)C#Cc1ccc2c(c1)[C@]1(COC(N)=N1)c1cc(C#CC(C)(C)C)ncc1O2 [compound 847]	
5.30 to 6.00			CC(C)(C)CCOc1nccc2c1[C@@]1(COC(N)=N1)c1cc(-c3cccnc3)ccc1O2 [compound 931]	pIC50 (BACE1 [1]): < 5.30
	6.00 to 7.00	> 7.00	CCCNC(=O)c1ccc2c(c1)[C@@]1(COC(N)=N1)c1cc(OCC(C)(C)C)ccc1O2 [compound 657]	
	5.30 to 6.00	6.00 to 7.00	CC(C)(C)COc1ccc2c(c1)[C@]1(COC(N)=N1)c1cc(-c3ccc(F)nc3)cnc1O2 [compound 869]	
6.00 to 7.00			CC(C)(C)COc1ccc2c(c1)[C@@]1(COC(N)=N1)c1cc(C#N)ccc1O2 [compound 990]	pIC50 (BACE1 [1]): 5.30 to 6.00
> 7.00			CCC(C)(O)COc1ccc2c(c1)[C@]1(COC(N)=N1)c1cc(-c3cccnc3)ccc1O2 (stereo partly drawn) [compound 770]	pIC50 (BACE1 [1]): > 7.00
	6.00 to 7.00	> 7.00	CC(C)(C)C#Cc1ccc2c(c1)[C@]1(COC(N)=N1)c1cc(-c3cccnc3)ncc1O2 [compound 824]	

Reference: patent US8426447B2, “Spiro-tricyclic ring compounds as beta-secretase modulators and methods of use” (Amgen Inc., priority 2008, dated 2013)
